Test results published in patent publication US8003604B2, “Hepatitis C virus inhibitors” (priority 2006, dated 2011).

Legend:
[1] = test system: HCV replicon in HUH-7 cells; experiment: HCV replicon FRET assay (confirmed in replicon luciferase reporter assay); type: cell-based; conditions: Hepatitis C virus, 96 h; HUH-7 cells constitutively expressing HCV 1b replicon, 4 days incubation
From the text: An HCV replicon whole cell system was established as described by Lohmann V, Korner F, Koch J, Herian U, Theilmann L, Bartenschlager R., Science 285(5424):110-3 (1999). This system enabled us to evaluate the effects of our HCV Protease compounds on HCV RNA replication. Briefly, using the HCV strain 1b sequence described in the Lohmann paper (Accession number: AJ238799), an HCV cDNA was synthesized by Operon Technologies, Inc. (Alameda, Calif.), and the full-length replicon was then assembled in plasmid pGem9zf(+) (Promega, Madison, Wis.) using standard molecular biology techniques. […]
The HCV replicon FRET assay was developed to monitor the inhibitory effects of compounds described in the disclosure on HCV viral replication. […] After 4 days, cells were first assessed for cytotoxicity using alamar Blue (Trek Diagnotstic Systems) for a CC50 reading. The toxicity of compound (CC50) was determined by adding 1/10th volume of alamar Blue to the media incubating the cells. After 4 h, the fluorescence signal from each well was read, with an excitation wavelength at 530 nm and an emission wavelength of 580 nm, using the Cytofluor Series 4000 (Perspective Biosystems). […]

[2] = molecular target: T1, HCV NS3/4A protease complex (Hepatitis C virus genotype 1a, UniProt P27958, C1454S/C1711G); experiment: FRET peptide assay to monitor HCV NS3/4A proteolytic activity; type: biochemical
T1 construct: DNA encoding the recombinant HCV NS3/4A protease complex (amino acids 1027 to 1711) for these strains were manipulated; inferred from pET21b vector and Ni-NTA purification; made in house; host or cells: Escherichia coli BL21 (DE3), pET21b vector
From the text: HCV NS3 protease complexes, derived from the BMS strain, H77 strain or J4L6S strain, were generated, as described below. These purified recombinant proteins were generated for use in a homogeneous assay (see below) to provide an indication of how effective compounds of the present disclosure would be in inhibiting HCV NS3 proteolytic activity.
Serum from an HCV-infected patient was obtained from Dr. T. Wright, San Francisco Hospital. An engineered full-length cDNA (compliment deoxyribonucleic acid) template of the HCV genome (BMS strain) was constructed from DNA fragments obtained by reverse transcription-PCR (RT-PCR) of serum RNA (ribonucleic acid) and using primers selected on the basis of homology between other genotype 1a strains. From the determination of the entire genome sequence, a genotype 1a was assigned to the HCV isolate according to the classification of Simmonds et al. (See P Simmonds, K A Rose, S Graham, S W Chan, F McOmish, B C Dow, E A Follett, P L Yap and H Marsden, J. Clin. Microbiol., 31(6), 1493-1503 (1993)). […]

T1 sequence (P27958 1027-1711 C1454S/C1711G, one chain of several): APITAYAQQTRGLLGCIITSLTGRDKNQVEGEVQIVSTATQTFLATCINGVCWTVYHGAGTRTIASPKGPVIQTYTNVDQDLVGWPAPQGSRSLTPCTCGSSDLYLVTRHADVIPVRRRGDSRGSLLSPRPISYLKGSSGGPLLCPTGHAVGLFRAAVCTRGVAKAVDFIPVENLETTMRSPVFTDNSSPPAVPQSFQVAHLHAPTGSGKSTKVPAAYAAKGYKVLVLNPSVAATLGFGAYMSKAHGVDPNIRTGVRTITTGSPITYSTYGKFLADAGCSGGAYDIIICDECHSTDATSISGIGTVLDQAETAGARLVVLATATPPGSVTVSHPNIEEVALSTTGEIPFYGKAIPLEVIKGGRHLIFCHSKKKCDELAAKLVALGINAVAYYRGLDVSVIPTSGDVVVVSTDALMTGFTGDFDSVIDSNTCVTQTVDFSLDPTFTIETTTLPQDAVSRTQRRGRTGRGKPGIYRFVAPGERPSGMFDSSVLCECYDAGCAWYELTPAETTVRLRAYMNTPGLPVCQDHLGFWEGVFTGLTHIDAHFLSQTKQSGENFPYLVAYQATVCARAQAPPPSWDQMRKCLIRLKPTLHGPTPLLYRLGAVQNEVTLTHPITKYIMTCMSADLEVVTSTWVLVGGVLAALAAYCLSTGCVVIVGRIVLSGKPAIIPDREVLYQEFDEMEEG

Question: Which results are given for `CC(C)(C)OC(=O)N[C@H]1CCCCC/C=C\[C@@H]2C[C@@]2(C(=O)NS(=O)(=O)C2CC2)NC[C@@H]2C[C@@](O)(c3ccccc3)CN2C1=O` [Compound 2]?
Answer: EC50 [1]: 389 nM; IC50 [2]: 9 nM

Question: For `CC(C)(C)OC(=O)N[C@H]1CCCCC/C=C\C2C[C@@]2(C(=O)NS(=O)(=O)C2CC2)NC(=O)[C@@H]2C[C@@H](c3ccccc3)CN2C1=O` (stereo partly shown) [Compound 1], which EC50 [1] is on record?
Answer: Its EC50 is 639 nM.

Question: And the IC50 [2]?
Answer: The IC50 was 18 nM.
